Source: PubChem BioAssay (NCI)
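Compound exposure: 48 hours, 5 concentrations, 96-well plates. Definition used: TGI = concentration required for complete inhibition of growth.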

Tests used:
Assay in all cases: NCI tumour cell line growth inhibition, 48 h
786-0 renal = tested on: 786-0 renal
A498 renal = tested on: A498 renal
A549 NSCLC = tested on: A549 NSCLC
ACHN renal = tested on: ACHN renal
BT-549 breast = tested on: BT-549 breast
CAKI-1 renal = tested on: CAKI-1 renal
CCRF-CEM leukemia = tested on: CCRF-CEM leukemia
COLO 205 colon = tested on: COLO 205 colon
DU-145 prostate = tested on: DU-145 prostate
EKVX NSCLC = tested on: EKVX NSCLC
HCC-2998 colon = tested on: HCC-2998 colon
HCT-116 colon = tested on: HCT-116 colon
HCT-15 colon = tested on: HCT-15 colon
HL-60(TB) leukemia = tested on: HL-60(TB) leukemia
HOP-62 NSCLC = tested on: HOP-62 NSCLC
HOP-92 NSCLC = tested on: HOP-92 NSCLC
HS 578T breast = tested on: HS 578T breast
HT29 colon = tested on: HT29 colon
IGROV1 ovarian = tested on: IGROV1 ovarian
K-562 leukemia = tested on: K-562 leukemia
KM12 colon = tested on: KM12 colon
LOX IMVI melanoma = tested on: LOX IMVI melanoma
M14 melanoma = tested on: M14 melanoma
MALME-3M melanoma = tested on: MALME-3M melanoma
MCF7 breast = tested on: MCF7 breast
MDA-MB-231 breast = tested on: MDA-MB-231 breast
MDA-MB-435 = tested on: MDA-MB-435
MDA-N = tested on: MDA-N
MOLT-4 leukemia = tested on: MOLT-4 leukemia
NCI-H226 lung = tested on: NCI-H226 lung
NCI-H23 lung = tested on: NCI-H23 lung
NCI-H460 lung = tested on: NCI-H460 lung
NCI-H522 lung = tested on: NCI-H522 lung
NCI/ADR-RES ovarian = tested on: NCI/ADR-RES ovarian
OVCAR-3 ovarian = tested on: OVCAR-3 ovarian
OVCAR-4 ovarian = tested on: OVCAR-4 ovarian
OVCAR-5 ovarian = tested on: OVCAR-5 ovarian
OVCAR-8 ovarian = tested on: OVCAR-8 ovarian
PC-3 prostate = tested on: PC-3 prostate
RPMI-8226 leukemia = tested on: RPMI-8226 leukemia
SF-268 CNS = tested on: SF-268 CNS
SF-295 CNS = tested on: SF-295 CNS
SF-539 CNS = tested on: SF-539 CNS
SK-MEL-2 melanoma = tested on: SK-MEL-2 melanoma
SK-MEL-28 melanoma = tested on: SK-MEL-28 melanoma
SK-MEL-5 melanoma = tested on: SK-MEL-5 melanoma
SK-OV-3 ovarian = tested on: SK-OV-3 ovarian
SN12C renal = tested on: SN12C renal
SNB-19 CNS = tested on: SNB-19 CNS
SNB-75 CNS = tested on: SNB-75 CNS
SR leukemia = tested on: SR leukemia
SW-620 colon = tested on: SW-620 colon
T-47D breast = tested on: T-47D breast
TK-10 renal = tested on: TK-10 renal
U251 CNS = tested on: U251 CNS
UACC-257 melanoma = tested on: UACC-257 melanoma
UACC-62 melanoma = tested on: UACC-62 melanoma
UO-31 renal = tested on: UO-31 renal
RXF 393 renal = tested on: RXF 393 renal

COc1ccc(C(c2ccc(OC)cc2)N2C(=O)CCC2C(=O)O)cc1 (configuration not stated)
TGI (786-0 renal): > 100 µM | TGI (A498 renal): > 100 µM | TGI (A549 NSCLC): > 100 µM | TGI (ACHN renal): > 100 µM | TGI (BT-549 breast): > 100 µM | TGI (CAKI-1 renal): > 100 µM | TGI (CCRF-CEM leukemia): > 100 µM | TGI (COLO 205 colon): > 100 µM | TGI (DU-145 prostate): > 100 µM | TGI (EKVX NSCLC): > 100 µM | TGI (HCC-2998 colon): > 100 µM | TGI (HCT-116 colon): > 100 µM | TGI (HCT-15 colon): > 100 µM | TGI (HL-60(TB) leukemia): > 100 µM | TGI (HOP-62 NSCLC): > 100 µM | TGI (HOP-92 NSCLC): > 100 µM | TGI (HS 578T breast): > 100 µM | TGI (HT29 colon): > 100 µM | TGI (IGROV1 ovarian): > 100 µM | TGI (K-562 leukemia): > 100 µM | TGI (KM12 colon): > 100 µM | TGI (LOX IMVI melanoma): > 100 µM | TGI (M14 melanoma): > 100 µM | TGI (MALME-3M melanoma): > 100 µM | TGI (MCF7 breast): > 100 µM | TGI (MDA-MB-231 breast): > 100 µM | TGI (MDA-MB-435): > 100 µM | TGI (MDA-N): > 100 µM | TGI (MOLT-4 leukemia): > 100 µM | TGI (NCI-H226 lung): > 100 µM | TGI (NCI-H23 lung): > 100 µM | TGI (NCI-H460 lung): > 100 µM | TGI (NCI-H522 lung): > 100 µM | TGI (NCI/ADR-RES ovarian): > 100 µM | TGI (OVCAR-3 ovarian): > 100 µM | TGI (OVCAR-4 ovarian): > 100 µM | TGI (OVCAR-5 ovarian): > 100 µM | TGI (OVCAR-8 ovarian): > 100 µM | TGI (PC-3 prostate): > 100 µM | TGI (RPMI-8226 leukemia): > 100 µM | TGI (SF-268 CNS): > 100 µM | TGI (SF-295 CNS): > 100 µM | TGI (SF-539 CNS): > 100 µM | TGI (SK-MEL-2 melanoma): > 100 µM | TGI (SK-MEL-28 melanoma): > 100 µM | TGI (SK-MEL-5 melanoma): > 100 µM | TGI (SK-OV-3 ovarian): > 100 µM | TGI (SN12C renal): > 100 µM | TGI (SNB-19 CNS): > 100 µM | TGI (SNB-75 CNS): > 100 µM | TGI (SR leukemia): > 100 µM | TGI (SW-620 colon): > 100 µM | TGI (T-47D breast): > 100 µM | TGI (TK-10 renal): > 100 µM | TGI (U251 CNS): > 100 µM | TGI (UACC-257 melanoma): > 100 µM | TGI (UACC-62 melanoma): > 100 µM | TGI (UO-31 renal): > 100 µM

Cc1ccc(O)c(-c2cc(-c3cccc(Br)c3)c(C#N)c(N)n2)c1
TGI (786-0 renal): > 100 µM | TGI (A549 NSCLC): 87.1 µM | TGI (ACHN renal): 49.3 µM | TGI (BT-549 breast): > 100 µM | TGI (CAKI-1 renal): 75.6 µM | TGI (COLO 205 colon): 34.2 µM | TGI (DU-145 prostate): > 100 µM | TGI (EKVX NSCLC): 65.5 µM | TGI (HCC-2998 colon): 48.6 µM | TGI (HCT-116 colon): 42.4 µM | TGI (HCT-15 colon): 30.6 µM | TGI (HL-60(TB) leukemia): 72 µM | TGI (HOP-62 NSCLC): > 100 µM | TGI (HS 578T breast): 62.8 µM | TGI (HT29 colon): 54.7 µM | TGI (IGROV1 ovarian): 50.9 µM | TGI (K-562 leukemia): 57.3 µM | TGI (KM12 colon): 58.9 µM | TGI (LOX IMVI melanoma): 31.1 µM | TGI (M14 melanoma): 89.2 µM | TGI (MALME-3M melanoma): 63.1 µM | TGI (MCF7 breast): 92 µM | TGI (MDA-MB-231 breast): 52.7 µM | TGI (MDA-MB-435): 39.8 µM | TGI (MDA-N): 79.6 µM | TGI (MOLT-4 leukemia): 77.1 µM | TGI (NCI-H226 lung): 44.1 µM | TGI (NCI-H23 lung): > 100 µM | TGI (NCI-H460 lung): 55.7 µM | TGI (NCI-H522 lung): 47.8 µM | TGI (NCI/ADR-RES ovarian): > 100 µM | TGI (OVCAR-3 ovarian): > 100 µM | TGI (OVCAR-4 ovarian): 22.5 µM | TGI (OVCAR-5 ovarian): > 100 µM | TGI (OVCAR-8 ovarian): > 100 µM | TGI (PC-3 prostate): 55.6 µM | TGI (RPMI-8226 leukemia): 28 µM | TGI (RXF 393 renal): 62.5 µM | TGI (SF-268 CNS): > 100 µM | TGI (SF-295 CNS): 54.2 µM | TGI (SF-539 CNS): 75.5 µM | TGI (SK-MEL-2 melanoma): 51.6 µM | TGI (SK-MEL-5 melanoma): 60 µM | TGI (SK-OV-3 ovarian): 87.3 µM | TGI (SN12C renal): 49.7 µM | TGI (SNB-19 CNS): 45.7 µM | TGI (SR leukemia): 46.8 µM | TGI (SW-620 colon): 89.8 µM | TGI (T-47D breast): 76.2 µM | TGI (TK-10 renal): 40.2 µM | TGI (U251 CNS): 35.3 µM | TGI (UACC-257 melanoma): 52 µM | TGI (UACC-62 melanoma): 37.4 µM | TGI (UO-31 renal): 72.7 µM
